Laboratory results: ChEMBL document CHEMBL1201862, “PubChem BioAssay data set” (2004)
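48-hour exposure; five concentrations; linearly interpolated endpoints. At the GI50, growth is halved.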 The source made the active and inactive calls. Rule as the data show it: active = GI50 up to about 1.1 µM and inactive = higher.

Key:
Test in all cases: NCI anticancer screen, dose series, 48 h
HOP-62 = test system: HOP-62
A498 = test system: A498
M14 = test system: M14
SN12C = test system: SN12C
SF-268 = test system: SF-268
COLO 205 = test system: COLO 205
SF-539 = test system: SF-539
SK-MEL-2 = test system: SK-MEL-2
SK-MEL-28 = test system: SK-MEL-28
UACC-62 = test system: UACC-62
U-251 = test system: U-251
IGROV-1 = test system: IGROV-1
UACC-257 = test system: UACC-257
K562 = test system: K562
DU-145 = test system: DU-145
MCF7 = test system: MCF7
SK-MEL-5 = test system: SK-MEL-5
RPMI-8226 = test system: RPMI-8226
T47D = test system: T47D
Hs-578T = test system: Hs-578T

Measured: GI50

NC(=S)C1=C(N)Oc2c(c(=O)oc3ccccc23)C1c1ccc(Br)cc1 (stereo not given)
inactive: HOP-62 > 100 µM | A498 63.2 µM | M14 > 100 µM | SN12C > 100 µM | SF-268 > 100 µM | COLO 205 > 100 µM | SF-539 > 100 µM | SK-MEL-2 > 100 µM | SK-MEL-28 > 100 µM | UACC-62 > 100 µM | U-251 > 100 µM | IGROV-1 > 100 µM | UACC-257 > 100 µM | K562 42.1 µM | DU-145 > 100 µM | MCF7 > 100 µM | SK-MEL-5 > 100 µM

CN(C)c1n/c(=N/c2ccc3ccccc3c2)ss1
inactive: HOP-62 41.8 µM | A498 30.6 µM | M14 24 µM | SN12C 32.9 µM | SF-268 33.7 µM | COLO 205 11.2 µM | SF-539 78.9 µM | RPMI-8226 6.9 µM | SK-MEL-2 21.3 µM | SK-MEL-28 34.8 µM | UACC-62 21.5 µM | U-251 6.22 µM | IGROV-1 19 µM | UACC-257 16.5 µM | K562 15.1 µM | SK-MEL-5 11.1 µM

COC(=O)C(Cc1ccccc1)NC(=O)Cn1ccnc1[N+](=O)[O-] (stereo not given)
inactive: HOP-62 > 100 µM | A498 > 100 µM | M14 > 100 µM | SN12C > 100 µM | SF-268 > 100 µM | COLO 205 77.3 µM | SF-539 > 100 µM | RPMI-8226 > 100 µM | SK-MEL-2 > 100 µM | SK-MEL-28 > 100 µM | UACC-62 > 100 µM | U-251 > 100 µM | IGROV-1 > 100 µM | UACC-257 > 100 µM | K562 > 100 µM | SK-MEL-5 96.6 µM

O=C(/C=C\c1ccccc1O)c1ccc(O)cc1O
inactive: HOP-62 > 100 µM | A498 > 100 µM | M14 > 100 µM | SN12C > 100 µM | SF-268 > 100 µM | COLO 205 28.6 µM | SF-539 > 100 µM | RPMI-8226 62.8 µM | SK-MEL-2 > 100 µM | SK-MEL-28 > 100 µM | UACC-62 > 100 µM | U-251 > 100 µM | IGROV-1 > 100 µM | UACC-257 > 100 µM | K562 > 100 µM | SK-MEL-5 > 100 µM

O=C(CCCCCCCCC(=O)OCC1OC(n2cnc3c(=O)[nH]cnc32)C(O)C1O)OCC1OC(n2cnc3c(=O)[nH]cnc32)C(O)C1O (stereo not given)
inactive: HOP-62 > 100 µM | A498 > 100 µM | M14 > 100 µM | SN12C > 100 µM | SF-268 > 100 µM | COLO 205 > 100 µM | SF-539 > 100 µM | RPMI-8226 > 100 µM | SK-MEL-2 > 100 µM | SK-MEL-28 > 100 µM | UACC-62 > 100 µM | U-251 > 100 µM | IGROV-1 > 100 µM | UACC-257 > 100 µM | K562 > 100 µM | SK-MEL-5 > 100 µM

N#Cc1nc(C2OC(COC(=O)c3ccccc3)C(OC(=O)c3ccccc3)C2OC(=O)c2ccccc2)oc1N (stereo not given)
inactive: HOP-62 > 100 µM | A498 > 100 µM | M14 89.7 µM | SN12C 48.2 µM | SF-268 15 µM | COLO 205 61.4 µM | SF-539 58.6 µM | RPMI-8226 2.1 µM | SK-MEL-2 27.3 µM | SK-MEL-28 31 µM | UACC-62 38.7 µM | U-251 32.5 µM | IGROV-1 > 100 µM | UACC-257 20.7 µM | K562 6.12 µM | SK-MEL-5 14.5 µM

C[N+](C)([O-])Cc1cccc(NC(=O)c2ccc(C(=O)Nc3cccc(C[N+](C)(C)[O-])c3)cc2)c1
inactive: HOP-62 > 100 µM | M14 > 100 µM | SN12C > 100 µM | SF-268 > 100 µM | COLO 205 > 100 µM | SF-539 > 100 µM | RPMI-8226 > 100 µM | SK-MEL-2 > 100 µM | SK-MEL-28 > 100 µM | UACC-62 > 100 µM | U-251 > 100 µM | IGROV-1 > 100 µM | UACC-257 > 100 µM | T47D > 100 µM | K562 > 100 µM | DU-145 > 100 µM | MCF7 > 100 µM | SK-MEL-5 > 100 µM

CN1N(c2ccccc2)C(=O)C2=NC=C(C#N)C(=N)C21C (stereo not given)
inactive: A498 > 100 µM | M14 > 100 µM | SN12C > 100 µM | COLO 205 > 100 µM | SF-539 > 100 µM | RPMI-8226 > 100 µM | SK-MEL-2 > 100 µM | SK-MEL-28 > 100 µM | UACC-62 > 100 µM | U-251 > 100 µM | IGROV-1 > 100 µM | UACC-257 > 100 µM | K562 > 100 µM | DU-145 > 100 µM | MCF7 > 100 µM | SK-MEL-5 > 100 µM

O=C1/C(=C/c2ccc(Cl)cc2)CSC/C1=C\c1ccc(Cl)cc1
inactive: HOP-62 4.74 µM | M14 1.84 µM | SN12C 3.39 µM | SF-268 5.96 µM | COLO 205 3.02 µM | SF-539 2.76 µM | SK-MEL-2 14.5 µM | SK-MEL-28 1.87 µM | UACC-62 1.51 µM | U-251 1.67 µM | IGROV-1 1.82 µM | UACC-257 1.99 µM | T47D 6.89 µM | K562 3.08 µM | DU-145 5.87 µM | MCF7 2.72 µM | SK-MEL-5 3.45 µM
active: RPMI-8226 0.798 µM

S=C(/N=c1/sc(Nc2ccccc2)nc2sc3c(c12)CCCC3)Nc1ccccc1
inactive: HOP-62 > 62.5 µM | A498 > 62.5 µM | SN12C > 62.5 µM | SF-268 > 62.5 µM | COLO 205 > 62.5 µM | Hs-578T > 62.5 µM | RPMI-8226 62.2 µM | SK-MEL-2 > 62.5 µM | SK-MEL-28 > 62.5 µM | UACC-62 > 62.5 µM | U-251 > 62.5 µM | IGROV-1 > 62.5 µM | UACC-257 > 62.5 µM | K562 > 62.5 µM | DU-145 > 62.5 µM | MCF7 > 62.5 µM | SK-MEL-5 > 62.5 µM

Cc1c(-c2ccccc2)c(=O)oc2ccc(Cl)cc12
inactive: HOP-62 27.9 µM | A498 > 100 µM | M14 26.7 µM | SN12C > 100 µM | SF-268 90.2 µM | COLO 205 > 100 µM | SF-539 38.2 µM | RPMI-8226 > 100 µM | SK-MEL-2 > 100 µM | SK-MEL-28 > 100 µM | UACC-62 59.8 µM | U-251 46.9 µM | IGROV-1 > 100 µM | UACC-257 8.55 µM | K562 > 100 µM | SK-MEL-5 40.3 µM

O=C1/C(=C/c2cccc(Br)c2)CSC/C1=C\c1cccc(Br)c1
active: RPMI-8226 0.537 µM
inactive: HOP-62 2.72 µM | M14 2.4 µM | SN12C 2.25 µM | SF-268 5.33 µM | COLO 205 2.9 µM | SF-539 2.53 µM | SK-MEL-2 3.08 µM | SK-MEL-28 2.65 µM | UACC-62 1.65 µM | U-251 1.87 µM | IGROV-1 3.04 µM | UACC-257 2.38 µM | T47D 4.89 µM | K562 2.36 µM | DU-145 8.69 µM | MCF7 3.17 µM | SK-MEL-5 1.87 µM

FC(F)(F)c1ccc(C2=N/S(c3ccccc3)=N\C(c3ccc(C(F)(F)F)cc3)=N/S(c3ccccc3)=N\2)cc1 (stereo not given)
inactive: M14 > 100 µM | SN12C > 100 µM | SF-268 > 100 µM | COLO 205 > 100 µM | Hs-578T > 100 µM | SF-539 > 100 µM | RPMI-8226 > 100 µM | SK-MEL-2 > 100 µM | SK-MEL-28 > 100 µM | UACC-62 > 100 µM | U-251 > 100 µM | IGROV-1 > 100 µM | UACC-257 > 100 µM | K562 > 100 µM | DU-145 > 100 µM | MCF7 > 100 µM | SK-MEL-5 > 100 µM

CC(=O)c1ccc(NC(=O)C(=O)Nn2c(S)nc3ccccc3c2=O)cc1
inactive: HOP-62 > 100 µM | A498 > 100 µM | M14 > 100 µM | SN12C > 100 µM | SF-268 > 100 µM | COLO 205 > 100 µM | SF-539 > 100 µM | RPMI-8226 > 100 µM | SK-MEL-2 > 100 µM | SK-MEL-28 > 100 µM | UACC-62 > 100 µM | U-251 > 100 µM | IGROV-1 > 100 µM | UACC-257 > 100 µM | K562 > 100 µM | SK-MEL-5 > 100 µM

N#CCc1ccc(C(C#N)/C(CCCC(=O)Nc2cccc([N+](=O)[O-])c2)=N\NC(=O)NN)cc1 (stereo not given)
inactive: HOP-62 > 100 µM | A498 > 100 µM | M14 > 100 µM | SN12C > 100 µM | SF-268 > 100 µM | COLO 205 > 100 µM | SF-539 > 100 µM | RPMI-8226 > 100 µM | SK-MEL-2 > 100 µM | SK-MEL-28 > 100 µM | UACC-62 > 100 µM | U-251 > 100 µM | IGROV-1 > 100 µM | UACC-257 > 100 µM | K562 > 100 µM | SK-MEL-5 > 100 µM

C=C[C@]1(C)CCC2=C(CCC3C2(C)CCC[C@]3(C)CO)C1 (stereo not given in full)
inactive: HOP-62 > 100 µM | A498 > 100 µM | M14 75.5 µM | SN12C 20.2 µM | SF-268 33.4 µM | COLO 205 38.4 µM | SF-539 > 100 µM | RPMI-8226 27.2 µM | SK-MEL-2 45.9 µM | SK-MEL-28 > 100 µM | UACC-62 76.9 µM | U-251 26.9 µM | IGROV-1 > 100 µM | UACC-257 51.5 µM | K562 34.8 µM | SK-MEL-5 67.1 µM
